Measurements published in patent publication US20170023576A1, “NOTCH3 ANTIBODIES AND USES THEREOF” (ONCOMED PHARMACEUTICALS, INC., priority 2014, published 2017).

Columns and labels:
[1] = test system: OMP-PN08 pancreatic tumor; experiment: Pancreatic tumor xenograft growth in vivo, OMP-PN08; set-up: species or system human; settings: OMP-PN8 tumors in NOD/SCID mice; antibody 40 mg/kg every other week, gemcitabine 20 mg/kg weekly
Description: (§1) Ten primary patient-derived pancreatic tumor xenografts were tested for efficacy in response to anti-Notch2/3 antibody OMP-59R5 in combination with gemcitabine. These tumors were OMP-PN04, OMP-PN07, OMP-PN08, OMP-PN11, OMP-PN13, OMP-PN16, OMP-PN17, OMP-PN21, OMP-PN23, and OMP-PN25.
In one representative example, OMP-PN8 pancreatic tumor cells (2×10^4) were injected into NOD/SCID mice. Tumors were allowed to grow for 22 days until they reached an average volume of 125 mm^3. Tumor-bearing mice were randomized into 4 groups and treated with control antibody, anti-NOTCH2/3 antibody OMP-59R5, gemcitabine, or a combination of OMP-59R5 and gemcitabine. Antibodies were dosed every other week at 40 mg/kg. Gemcitabine was dosed weekly at 20 mg/kg. Tumor growth was monitored and tumor volumes were measured with electronic calipers on the indicated days post-treatment.

[2] = test system: OMP-PN11 pancreatic tumor; experiment: Pancreatic tumor xenograft growth in vivo, OMP-PN11; set-up: species or system human; settings: OMP-PN11 tumors in NOD/SCID mice; antibody 40 mg/kg every other week, gemcitabine 20 mg/kg weekly
Description: as §1
In a second representative example, OMP-PN11 pancreatic tumor cells (5×10^4) were injected into NOD/SCID mice. Tumors were allowed to grow for 21 days until they reached an average volume of 120 mm^3. Tumor-bearing mice were randomized into 4 groups and treated with control antibody, OMP-59R5, gemcitabine, or a combination of OMP-59R5 and gemcitabine. Antibodies were dosed every other week at 40 mg/kg. Gemcitabine was dosed weekly at 20 mg/kg. […] Tumor growth was monitored and tumor volumes were measured with electronic calipers on the indicated days post-treatment.

OMP-59R5: anti-NOTCH2/3 therapeutic antibody; heavy chain variable region SEQ ID NO:18, light chain variable region SEQ ID NO:26
tumor growth (FIG. 1A) [1]: significantly inhibited tumor growth | tumor growth (FIG. 1B) [2]: no effect
